According to US20040067955A1, “Pyridazinone compound and pharmaceutical use thereof” (Fujisawa Pharmaceutical Co. Ltd., priority 2002, published 2004):

Experiments:
human A1 receptor = target: T1, human A1 receptor (Homo sapiens, UniProt P30542); experiment: Adenosine antagonistic activity: radioligand binding with [3H]DPCPX (4.5 nM)
T1 sequence (P30542 1-326): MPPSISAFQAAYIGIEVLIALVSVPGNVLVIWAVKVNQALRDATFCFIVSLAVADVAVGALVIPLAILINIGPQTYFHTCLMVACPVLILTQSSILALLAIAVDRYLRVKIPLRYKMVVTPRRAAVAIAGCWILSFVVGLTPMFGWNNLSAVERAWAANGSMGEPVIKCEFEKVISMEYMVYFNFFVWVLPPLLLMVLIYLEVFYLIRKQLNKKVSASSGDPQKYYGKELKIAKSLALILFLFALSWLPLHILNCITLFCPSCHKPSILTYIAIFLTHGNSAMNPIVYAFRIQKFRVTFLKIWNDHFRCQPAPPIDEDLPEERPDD
Protocol: (§1) The adenosine antagonistic activity [Ki(nM)] of the test compound was examined by radioligand binding techniques using 8-cyclopentyl-1,3-dipropylxanthine, [dipropyl-2,3-^3H (N)] ([^3H]DPCPX, 4.5 nM) for human A1 receptor and [^3H]CGS 21680 (20 nM) for human A2a receptor.

human A2a receptor = human A2a receptor (Homo sapiens, UniProt P29274); experiment: Adenosine antagonistic activity: radioligand binding with [3H]CGS 21680 (20 nM)
Protocol: as §1

ddY mice = experiment: Anticatalepsy activity in mouse (haloperidol-induced catalepsy, bar test); format: in vivo; details: test compound 3.2 mg/kg orally, ddY mice (n=7); haloperidol 0.32 mg/kg i.p. 30 min later; measured 30 min after injection
Protocol: The test compound (3.2 mg/kg) was administered orally with ddY mice (n=7). Then, haloperidol (0.32 mg/kg) was injected intraperitoneally 30 min. after the administration of the compound. Thirty min. After the injection, the cataleptic responses of mice were measured. The forelimbs of each mouse were placed on a 3 cm high, 3 mm wide horizontal bar, and the duration of cataleptic posture was measured for up to 30 sec.

Chain of human A2a receptor (P29274 whole entry): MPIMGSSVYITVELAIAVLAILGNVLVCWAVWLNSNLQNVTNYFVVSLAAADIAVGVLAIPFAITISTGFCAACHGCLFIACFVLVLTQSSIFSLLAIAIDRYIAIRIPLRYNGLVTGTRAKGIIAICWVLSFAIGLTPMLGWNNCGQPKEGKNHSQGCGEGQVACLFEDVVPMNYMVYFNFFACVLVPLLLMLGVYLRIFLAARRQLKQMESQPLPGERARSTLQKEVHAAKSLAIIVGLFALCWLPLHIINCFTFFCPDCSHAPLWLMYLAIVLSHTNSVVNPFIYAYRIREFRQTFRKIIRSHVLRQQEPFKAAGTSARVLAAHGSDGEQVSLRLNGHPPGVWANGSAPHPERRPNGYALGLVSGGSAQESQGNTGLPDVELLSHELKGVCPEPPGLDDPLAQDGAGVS

| Structure (SMILES) | Ki (human A1 receptor) | Ki (human A2a receptor) | Manifestation rate of catalepsy (number of mouse) (ddY mice) | melting point |
| --- | --- | --- | --- | --- |
| CC(C)n1nc(-c2cc(NC(=O)c3ccccc3)cnc2-c2ccccc2)ccc1=O [Example 27, N-[5-(1-isopropyl-6-oxo-1,6-dihydro-3-pyridazinyl)-6-phenyl-3-pyridyl]benzamide] | 0.31 nM | 1.24 nM | 0/7 | 207 to 208 °C |
| CC(C)n1nc(-c2cc(C#N)c(N)nc2-c2ccccc2)ccc1=O [Example 3, 2-Amino-5-(1-isopropyl-6-oxo-1,6-dihydro-3-pyridazinyl)-6-phenylnicotinonitrile] | 0.56 nM | 0.65 nM | 0/7 | 197 to 198 °C |
| CC(C)n1cc(-c2cc(Cl)c(N)nc2-c2ccccc2)cc(Cl)c1=O [Example 119, 6′-Amino-5,5′-dichloro-1-isopropyl-2′-phenyl-3,3′-bipyridin-6(1H)-one] | 1.99 nM | 2.06 nM | 0/7 | – |
| CC(C)n1nc(-c2cc(-c3ccn[nH]3)cnc2-c2ccccc2)ccc1=O [Example 24, 2-isopropyl-6-[2-phenyl-5-(pyrazol-5-yl)-3-pyridyl]-3(2H)-pyridazinone] | 0.46 nM | 2.7 nM | 0/7 | 212 to 213 °C |
